Laboratory results from ChEMBL document CHEMBL5346907, “Discovery of a novel oral type Ⅰ CDK8 inhibitor against acute myeloid leukemia” (Eur J Med Chem, 2023).

Legend:
[1] = biological target: CDK1/Cyclin A (Homo sapiens) (UniProt P06493+P20248); assay: Inhibition of CDK1/Cyclin A2 (unknown origin) at 1 uM preincubated for 10 mins followed by substrate addition measured for 60 to 120 mins by HTRF assay relative to control; format: protein-complex assay; settings: time 70-130 min
[2] = biological target: Ephrin type-A receptor 5 (Homo sapiens) (UniProt P54756); assay: Inhibition of EPHA5 (unknown origin) at 1 uM preincubated for 10 mins followed by substrate addition measured for 60 to 120 mins by HTRF assay relative to control; settings: time 70-130 min
Chain of Ephrin type-A receptor 5 (Homo sapiens) (P54756 whole entry): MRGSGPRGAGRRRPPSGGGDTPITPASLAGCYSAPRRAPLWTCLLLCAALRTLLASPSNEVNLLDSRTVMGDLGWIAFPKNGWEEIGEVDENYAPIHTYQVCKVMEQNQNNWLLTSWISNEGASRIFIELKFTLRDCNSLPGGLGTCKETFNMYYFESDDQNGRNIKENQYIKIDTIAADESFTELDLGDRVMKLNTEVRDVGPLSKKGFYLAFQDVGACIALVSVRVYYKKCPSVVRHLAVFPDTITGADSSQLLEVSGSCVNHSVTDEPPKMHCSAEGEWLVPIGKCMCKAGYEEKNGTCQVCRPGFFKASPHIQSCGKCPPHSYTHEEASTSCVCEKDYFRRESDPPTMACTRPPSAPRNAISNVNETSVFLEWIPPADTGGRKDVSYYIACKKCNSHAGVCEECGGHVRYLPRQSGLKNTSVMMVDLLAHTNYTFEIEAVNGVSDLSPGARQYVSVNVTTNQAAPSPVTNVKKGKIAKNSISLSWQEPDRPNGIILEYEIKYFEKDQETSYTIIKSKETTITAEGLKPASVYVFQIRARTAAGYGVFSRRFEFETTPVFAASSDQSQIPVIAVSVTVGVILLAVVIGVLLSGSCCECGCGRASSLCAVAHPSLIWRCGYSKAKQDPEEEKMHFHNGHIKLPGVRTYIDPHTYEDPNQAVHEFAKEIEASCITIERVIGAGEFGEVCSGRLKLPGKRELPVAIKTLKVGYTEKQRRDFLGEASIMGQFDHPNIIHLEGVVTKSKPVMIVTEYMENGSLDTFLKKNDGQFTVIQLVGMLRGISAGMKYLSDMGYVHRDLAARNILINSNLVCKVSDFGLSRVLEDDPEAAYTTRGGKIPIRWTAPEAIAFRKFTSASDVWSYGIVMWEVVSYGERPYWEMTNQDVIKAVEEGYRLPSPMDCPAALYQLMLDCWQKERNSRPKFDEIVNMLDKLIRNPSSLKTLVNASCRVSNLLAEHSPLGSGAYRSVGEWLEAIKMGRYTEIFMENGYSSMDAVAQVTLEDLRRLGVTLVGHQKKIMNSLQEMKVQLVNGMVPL

[3] = biological target: Tyrosine-protein kinase Fgr (Homo sapiens) (UniProt P09769); assay: Inhibition of FGR (unknown origin) at 1 uM preincubated for 10 mins followed by substrate addition measured for 60 to 120 mins by HTRF assay relative to control; settings: time 70-130 min
Chain of Tyrosine-protein kinase Fgr (Homo sapiens) (P09769 2-529 limits assumed): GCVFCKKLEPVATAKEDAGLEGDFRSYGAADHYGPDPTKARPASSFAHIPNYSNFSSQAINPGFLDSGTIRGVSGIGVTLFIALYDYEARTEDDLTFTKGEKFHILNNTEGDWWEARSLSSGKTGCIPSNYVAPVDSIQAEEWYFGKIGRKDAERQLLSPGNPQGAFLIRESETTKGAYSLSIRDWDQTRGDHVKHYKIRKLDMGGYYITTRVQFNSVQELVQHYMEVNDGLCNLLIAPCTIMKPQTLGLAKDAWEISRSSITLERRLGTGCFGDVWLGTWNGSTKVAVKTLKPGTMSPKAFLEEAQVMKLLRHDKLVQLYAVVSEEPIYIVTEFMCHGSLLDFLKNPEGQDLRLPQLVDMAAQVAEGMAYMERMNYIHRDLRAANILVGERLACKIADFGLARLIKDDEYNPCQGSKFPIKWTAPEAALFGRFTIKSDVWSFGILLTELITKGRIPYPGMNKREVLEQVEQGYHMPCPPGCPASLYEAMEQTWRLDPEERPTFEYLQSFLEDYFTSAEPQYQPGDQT

[4] = biological target: Tyrosine-protein kinase FRK (Homo sapiens) (UniProt P42685); assay: Inhibition of FRK (unknown origin) at 1 uM preincubated for 10 mins followed by substrate addition measured for 60 to 120 mins by HTRF assay relative to control; settings: time 70-130 min
Chain of Tyrosine-protein kinase FRK (Homo sapiens) (P42685 whole entry): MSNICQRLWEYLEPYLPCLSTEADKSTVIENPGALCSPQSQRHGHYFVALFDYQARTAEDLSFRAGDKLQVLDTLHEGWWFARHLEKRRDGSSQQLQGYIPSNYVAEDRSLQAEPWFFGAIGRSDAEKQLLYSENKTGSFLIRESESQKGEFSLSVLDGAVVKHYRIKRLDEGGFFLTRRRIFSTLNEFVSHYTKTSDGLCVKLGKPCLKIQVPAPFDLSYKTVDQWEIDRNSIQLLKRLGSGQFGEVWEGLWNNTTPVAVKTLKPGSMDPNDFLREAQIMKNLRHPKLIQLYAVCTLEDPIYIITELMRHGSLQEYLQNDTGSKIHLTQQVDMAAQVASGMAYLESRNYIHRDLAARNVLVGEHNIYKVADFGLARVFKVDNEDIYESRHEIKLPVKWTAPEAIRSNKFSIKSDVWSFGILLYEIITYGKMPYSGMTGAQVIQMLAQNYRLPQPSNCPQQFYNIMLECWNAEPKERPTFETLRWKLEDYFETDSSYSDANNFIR

[5] = tested on: HT-29; assay: Antiproliferative activity against human HT-29 cells incubated for 48 hrs by CCK8 assay; format: functional
[6] = biological target: CDK8/Cyclin C (Homo sapiens) (UniProt P49336+P24863); assay: Inhibition of CDK8/Cyclin C (unknown origin) at 1 uM preincubated for 10 mins followed by substrate addition measured for 60 to 120 mins by HTRF assay relative to control; format: protein-complex assay; settings: time 70-130 min
[7] = biological target: Muscle, skeletal receptor tyrosine-protein kinase (Homo sapiens) (UniProt O15146); assay: Inhibition of MUSK (unknown origin) at 1 uM preincubated for 10 mins followed by substrate addition measured for 60 to 120 mins by HTRF assay relative to control; settings: time 70-130 min
[8] = biological target: High affinity nerve growth factor receptor (Homo sapiens) (UniProt P04629); assay: Inhibition of TRKA (unknown origin) at 1 uM preincubated for 10 mins followed by substrate addition measured for 60 to 120 mins by HTRF assay relative to control; settings: time 70-130 min
[9] = tested on: HL-60; assay: Induction of apoptosis in human HL-60 cells assessed as necrotic cells at 1 uM incubated for 48 hrs by annexin V-FITC/PI staining based flow cytometry (reference value: 0.26 %); format: functional
[10] = biological target: Tyrosine-protein kinase CSK (Homo sapiens) (UniProt P41240); assay: Inhibition of CSK (unknown origin) at 1 uM preincubated for 10 mins followed by substrate addition measured for 60 to 120 mins by HTRF assay relative to control; settings: time 70-130 min
Chain of Tyrosine-protein kinase CSK (Homo sapiens) (P41240 2-450 limits assumed): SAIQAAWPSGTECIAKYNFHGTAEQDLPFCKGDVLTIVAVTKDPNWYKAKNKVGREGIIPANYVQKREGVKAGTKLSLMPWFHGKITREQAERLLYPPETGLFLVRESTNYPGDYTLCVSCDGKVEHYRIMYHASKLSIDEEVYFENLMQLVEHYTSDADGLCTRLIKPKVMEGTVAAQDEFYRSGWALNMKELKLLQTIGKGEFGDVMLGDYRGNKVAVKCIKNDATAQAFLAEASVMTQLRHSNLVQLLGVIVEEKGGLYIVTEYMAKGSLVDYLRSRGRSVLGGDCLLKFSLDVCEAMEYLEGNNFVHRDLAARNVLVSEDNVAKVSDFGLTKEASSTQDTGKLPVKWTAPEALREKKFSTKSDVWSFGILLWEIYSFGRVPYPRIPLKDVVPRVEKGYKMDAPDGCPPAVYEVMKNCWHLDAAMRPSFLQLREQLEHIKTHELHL

[11] = AUC (0 to infinity) in Sprague-Dawley rat at 2 mg/kg, iv; format: ADME, organism-based; parameters: dose 2 mg/kg, route iv; settings: in vivo
[12] = biological target: Tyrosine-protein kinase ABL2 (Homo sapiens) (UniProt P42684); assay: Inhibition of ABL2 (unknown origin) at 1 uM preincubated for 10 mins followed by substrate addition measured for 60 to 120 mins by HTRF assay relative to control; settings: time 70-130 min
Chain of Tyrosine-protein kinase ABL2 (Homo sapiens) (P42684 whole entry): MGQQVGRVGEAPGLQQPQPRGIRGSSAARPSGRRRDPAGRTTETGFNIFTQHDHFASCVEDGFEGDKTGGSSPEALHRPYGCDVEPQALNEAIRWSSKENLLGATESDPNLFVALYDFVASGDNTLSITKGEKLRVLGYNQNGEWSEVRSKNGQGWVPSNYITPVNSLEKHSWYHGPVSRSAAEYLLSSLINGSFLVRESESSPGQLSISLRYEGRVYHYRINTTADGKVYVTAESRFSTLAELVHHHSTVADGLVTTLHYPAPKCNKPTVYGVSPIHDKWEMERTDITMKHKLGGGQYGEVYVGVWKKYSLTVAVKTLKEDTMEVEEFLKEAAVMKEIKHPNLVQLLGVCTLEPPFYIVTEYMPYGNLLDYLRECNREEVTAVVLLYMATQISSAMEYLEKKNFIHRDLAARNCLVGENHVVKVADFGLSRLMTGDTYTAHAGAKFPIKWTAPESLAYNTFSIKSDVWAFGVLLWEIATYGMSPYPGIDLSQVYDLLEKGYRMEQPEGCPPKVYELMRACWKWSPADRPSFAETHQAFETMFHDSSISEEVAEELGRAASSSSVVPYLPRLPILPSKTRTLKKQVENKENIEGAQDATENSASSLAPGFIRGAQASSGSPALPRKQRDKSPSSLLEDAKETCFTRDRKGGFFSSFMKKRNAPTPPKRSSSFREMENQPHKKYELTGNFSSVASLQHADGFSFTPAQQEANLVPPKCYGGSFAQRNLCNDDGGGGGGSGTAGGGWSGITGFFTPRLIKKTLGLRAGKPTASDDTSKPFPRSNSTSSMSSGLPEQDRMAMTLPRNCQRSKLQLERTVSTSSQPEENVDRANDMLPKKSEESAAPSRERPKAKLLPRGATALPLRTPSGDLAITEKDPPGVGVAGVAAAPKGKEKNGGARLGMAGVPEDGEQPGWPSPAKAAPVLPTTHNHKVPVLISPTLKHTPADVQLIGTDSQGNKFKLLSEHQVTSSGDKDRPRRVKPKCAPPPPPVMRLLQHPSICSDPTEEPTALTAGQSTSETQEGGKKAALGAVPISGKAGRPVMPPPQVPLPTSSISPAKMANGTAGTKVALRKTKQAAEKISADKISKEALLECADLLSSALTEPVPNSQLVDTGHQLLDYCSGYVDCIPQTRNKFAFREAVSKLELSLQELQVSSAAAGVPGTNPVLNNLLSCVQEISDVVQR

[13] = biological target: CDK12/Cyclin K (Homo sapiens) (UniProt O75909+Q9NYV4); assay: Inhibition of CDK12/Cyclin K (unknown origin) at 1 uM preincubated for 10 mins followed by substrate addition measured for 60 to 120 mins by HTRF assay relative to control; format: protein-complex assay; settings: time 70-130 min
[14] = tested on: C1498; assay: Downregulation of STAT5 S726 expression in mouse C1498 cells allografted in AML Balb/C mouse model administered orally daily for 15 days measured after 3 weeks by Western blot analysis; format: functional, cell-based; settings: dose 40-80 mg/kg, route po, time 15.0 day
[15] = Cmax in Sprague-Dawley rat at 10 mg/kg, po; format: ADME, organism-based; parameters: dose 10 mg/kg, route po; settings: in vivo
[16] = species: Homo sapiens; assay: Inhibition of FYN a (unknown origin) at 1 uM preincubated for 10 mins followed by substrate addition measured for 60 to 120 mins by HTRF assay relative to control; settings: time 70-130 min
[17] = biological target: Proto-oncogene tyrosine-protein kinase ROS (Homo sapiens) (UniProt P08922); assay: Inhibition of ROS (unknown origin) at 1 uM preincubated for 10 mins followed by substrate addition measured for 60 to 120 mins by HTRF assay relative to control; settings: time 70-130 min
[18] = Acute toxicity in C57BL/6 mouse assessed as histopathological change in heart at 2000 mg/kg, IG measured for 14 days by H&E staining based analysis; format: organism-based; settings: in vivo, po, 336 h, time 14 day

Chain of CDK1/Cyclin A (Homo sapiens) (P06493 whole entry, looked up): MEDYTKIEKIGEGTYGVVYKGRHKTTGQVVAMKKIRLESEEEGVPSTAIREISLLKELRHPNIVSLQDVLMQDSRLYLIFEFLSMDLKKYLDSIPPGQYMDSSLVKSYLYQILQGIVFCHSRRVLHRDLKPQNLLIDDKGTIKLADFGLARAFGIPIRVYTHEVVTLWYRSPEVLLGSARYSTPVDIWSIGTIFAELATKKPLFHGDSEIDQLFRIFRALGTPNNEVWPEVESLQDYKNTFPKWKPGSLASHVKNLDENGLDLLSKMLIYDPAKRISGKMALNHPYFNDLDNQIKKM
Chain of CDK1/Cyclin A (Homo sapiens) (P20248 whole entry, looked up): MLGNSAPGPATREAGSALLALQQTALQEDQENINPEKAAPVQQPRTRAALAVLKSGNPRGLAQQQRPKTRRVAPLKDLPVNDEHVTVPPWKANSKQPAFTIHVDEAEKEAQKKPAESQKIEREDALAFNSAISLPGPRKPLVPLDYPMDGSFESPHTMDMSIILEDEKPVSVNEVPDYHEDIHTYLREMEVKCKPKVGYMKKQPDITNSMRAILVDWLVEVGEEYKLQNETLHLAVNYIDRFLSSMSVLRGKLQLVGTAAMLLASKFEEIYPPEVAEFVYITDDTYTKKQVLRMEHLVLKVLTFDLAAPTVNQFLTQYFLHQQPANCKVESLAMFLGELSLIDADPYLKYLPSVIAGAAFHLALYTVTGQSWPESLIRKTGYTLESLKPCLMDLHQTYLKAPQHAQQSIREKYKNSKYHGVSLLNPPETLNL

NC(=O)c1cccc(-c2cnc3[nH]ccc3c2)c1
inhibition [1]: 8.45% | inhibition [2]: 1% | inhibition [3]: 14.9% | inhibition [4]: 3.82% | GI50 [5]: > 50 µM | inhibition [6]: 38.9% | inhibition [7]: 3.63% | inhibition [8]: 13.3% | Activity [9]: 5.04% | inhibition [10]: 0% | AUC(0-inf) [11]: 310 ng·h/mL | inhibition [12]: 0% | inhibition [13]: 0.16% | Activity [14]: Dose-Dependent Effect | Cmax [15]: 206 ng/mL | inhibition [16]: 0% | inhibition [17]: 8.63% | Activity [18]: Non-Toxic
